Measured values taken from paper PMC6767236, “Selective Cannabinoid 2 Receptor Agonists as Potential Therapeutic Drugs for the Treatment of Endotoxin-Induced Uveitis” (Molecules, 2019).

Assays:
human CB1R = target: T1, human CB1R (Homo sapiens, UniProt P21554); assay: cAMP assay, CHO cells expressing human CB1R; type: cell-based; settings: read-out: hCB1R: cAMP EC50
T1 construct: host or cells: CHO
Method: The effect of ligands on the forskolin-stimulated accumulation of cAMP was determined using the LANCE ULTRA cAMP kit as per the manufacturer’s instruction (Perkin-Elmer Life Sciences, Boston, MA, USA).
For human CB2R and CB1R, cAMP assays were performed using CHO cells stably expressing human CB2R or human CB1R (DiscoveRx, Fremont, CA, USA) using a cAMP-Nano-TRF detection kit (Roche Diagnostics, Penzberg, Germany). Cells were seeded 17–24 h prior to the experiment at a density of 3 × 10^4 cells per well in a black 96-well plate with clear flat bottom (Corning, Wiesbaden, Germany) and incubated in 5% CO2 at 37 °C in a humidified incubator. The growth medium was exchanged with Krebs Ringer bicarbonate buffer with 1 mmol/L 3-isobutyl-1-methylxanthine (IBMX), 0.1% fatty acid-free BSA and incubated at 30 °C for 60 min. Agonist was added to a final assay volume of 100 μL and the mixture was incubated for 30 min at 30 °C. The assay was stopped by the addition of 50 μL 3 × lysis reagent and shaken for 2 h at room temperature. The time-resolved fluorescence energy transfer was measured using an LF502 Nanoscan FLT (IOM, Berlin, Germany), equipped with a laser as excitation source. cAMP content was determined from the function of a standard curve spanning from 10 to 0.13 nmol/L cAMP. Efficacies are expressed as percent relative to 1 µM CP55940.

pKa = type: physicochemical; settings: read-out: pKa (basic)
[1] = Plasma protein binding (equilibrium dialysis), mouse plasma; type: in vitro ADME; settings: C57, pH 7.4, read-out: Plasma Protein Binding: FREE Fraction mouse
Method: Pooled and frozen plasma from selected species were obtained from commercial suppliers […]
(human […] and mouse […]3-C57; BioreclamationIV, NY, USA). Teflon […]
equilibrium dialysis plates (96-well, 150 μL, half-cell capacity) and cellulose membranes (12–14 kDa molecular weight cut-off) were purchased from HT-Dialysis (Gales Ferry, Connecticut). Both biological matrix and phosphate buffer pH were adjusted to 7.4 on the day of the experiment. The reference substance was diazepam.
The determination of unbound compound was performed using a 96-well format equilibrium dialysis device with a molecular weight cut-off membrane of 12 to 14 kDa. […]
At equilibrium, the unbound drug concentration in the biological matrix compartment of the equilibrium dialysis apparatus is the same as the concentration of the compound in the buffer compartment. Thus, the percent unbound fraction was be calculated by determining the compound concentrations in the buffer and matrix compartments after dialysis as follows: % fraction unbound = 100 × buffer concentration after dialysis/matrix concentration after dialysis. […]
P-glycoprotein (permeability-glycoprotein (P-gp), also known as multidrug resistance protein 1) is the most studied and best characterized drug transporter. […] The effect of P-gp was measured by expressing the efflux ratio of the unidirectional A > B and B > A Papp values. […]

T1 sequence (P21554 whole entry): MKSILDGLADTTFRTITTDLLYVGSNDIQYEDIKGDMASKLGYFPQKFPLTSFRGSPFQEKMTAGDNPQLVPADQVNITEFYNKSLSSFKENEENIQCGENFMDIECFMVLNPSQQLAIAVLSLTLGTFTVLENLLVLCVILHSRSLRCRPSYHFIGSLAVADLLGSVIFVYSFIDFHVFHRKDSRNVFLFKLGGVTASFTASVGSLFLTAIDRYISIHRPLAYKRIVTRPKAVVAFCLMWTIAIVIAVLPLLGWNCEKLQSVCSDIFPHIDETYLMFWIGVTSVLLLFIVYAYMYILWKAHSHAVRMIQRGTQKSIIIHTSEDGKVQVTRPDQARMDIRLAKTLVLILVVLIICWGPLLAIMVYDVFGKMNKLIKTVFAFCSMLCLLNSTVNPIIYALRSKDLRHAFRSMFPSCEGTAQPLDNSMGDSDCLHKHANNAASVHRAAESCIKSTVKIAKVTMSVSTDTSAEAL

`CNC(=O)[C@@H](NC(=O)c1cc(OCC2(C)COC2)c(C2CC2)cn1)C(C)(C)C` [RO6851228, 5-Cyclopropyl-N-[(2S)-3,3-dimethyl-1-(methylamino)-1-oxobutan-2-yl]-4-[(3-methyloxetan-3-yl)methoxy]pyridine-2-carboxamide] gave an EC50 (human CB1R) greater than 10 µM.
`CC(C)(C)c1nc(N2CC[C@H](O)C2)c2nnn(Cc3nnnn3C3CC3)c2n1` [RO6871304, (3S)-1-{5-tert-butyl-3-[(1-cyclopropyl-1H-tetrazol-5-yl)methyl]-3H-[1,2, 3]triazolo[4,5-d]pyrimidin-7-yl}pyrrolidin-3-ol] showed a pKa (pKa) of 2.7 and a fraction unbound at 5 h, 1000 nM [1] of 0.031.
